# Earlier results in patent publication US20110262540A1, “Solid Pharmaceutical Composition Comprising Exemestane” (ARROW INTERNATIONAL LIMITED, priority 2008, published 2011).
compound,measurement,value
"C=C1C[C@@H]2[C@H](CC[C@]3(C)C(=O)CC[C@@H]23)[C@@]2(C)C=CC(=O)C=C12 [Exemestane, 6-methylenandrosta-1,4-diene-3,17-dione]",Solubility in water,practically insoluble in water
